Assay results: patent US20200016136A1 (VIIV HEALTHCARE UK (NO. 5) LIMITED, priority 2017, published 2020)

Test system: NL-RLuc virus (recombinant NL4-3 HIV with Renilla Luciferase gene)
Assay: Inhibition of HIV replication (NL-RLuc virus in MT-2 cells, luciferase readout)
Assay type: cell-based, Human immunodeficiency virus (HIV)
Details: MT2, 120 h
Text: Inhibition of HIV Replication:
A recombinant NL-RLuc proviral clone was constructed in which a section of the nef gene form NL4-3 was replaced with the Renilla Luciferase gene. This virus is fully infectious and can undergo multiple cycles of replication in cell culture. In addition, the luciferous reporter provides a simple and easy method for quantitating the extent of virus growth and consequently, the antiviral activity of test compounds. The plasmid pNLRLuc contains the proviral NL-Rluc DNA cloned into pUC18 at the PvuII site. The NL-RLuc virus was prepared by transfection of 293T cells with the plasmid pNLRLuc. Transfections were performed using the LipofectAMINE PLUS kit form Invitrogen (Carlsbad, Calif.) according to the manufacturer and the virus generated was titered in MT-2 cells. For susceptibility analyses, the titrated virus was used to infect MT-2 cells in the presence of compound, and after 5 days of incubation, cells were processed and quantitated for virus growth by the amount of expressed luciferase. Assay media was RPMI 1640 supplemented with 10% heat inactivated fetal bovine serum (FBS), 100 units/ml penicillin G/100 units/ml streptomycin, 10 mM HEPES buffer pH 7.55 and 2 mM L-glutamine. The results form at least 2 experiments were used to calculate the EC50 values. Luciferase was quantitated using the Dual Luciferase kit form Promega (Madison, Wis.). Susceptibility of viruses to compounds was determined by incubation in the presence of serial dilutions of the compound. The 50% effective concentration (EC50) was calculated by using the exponential form of the median effect equation where (Fa)=1/[1+(ED50/drug conc.)^m](Johnson V A, Byington R T. Infectivity Assay. In Techniques in HIV Research. ed. Aldovini A, Walker B D. 71-76. New York: Stockton Press. 1990).

| SMILES | EC50 |
| --- | --- |
| Cc1nc(C)c([C@H](OC(C)(C)C)C(=O)O)c(N2CCC(C)(C)CC2)c1-c1ccc2c(c1)CCN(c1nccc(N3CCN(CCO)CC3)n1)C2 [Example 69, (S)-2-(tert-Butoxy)-2-(4-(4,4-dimethylpiperidin-1-yl)-5-(2-(4-(4-(2-hydroxyethyl)piperazin-1-yl)pyrimidin-2-yl)-1,2,3,4-tetrahydroisoquinolin-6-yl)-2,6-dimethylpyridin-3-yl)acetic Acid] | 18 nM |
| Cc1nc(C)c([C@H](OC(C)(C)C)C(=O)O)c(N2CCC(C)(C)CC2)c1-c1ccc2c(c1)CCN(c1cccc(F)n1)C2 [Example 94, (S)-2-(tert-Butoxy)-2-(4-(4,4-dimethylpiperidin-1-yl)-5-(2-(6-fluoropyridin-2-yl)-1,2,3,4-tetrahydroisoquinolin-6-yl)-2,6-dimethylpyridin-3-yl)acetic Acid] | 4 nM |
| Cc1ncc(-c2ccc3c(c2)CCN(c2nccc(N4CCOCC4)n2)C3)c(N2CCC(C)(C)CC2)c1[C@H](OC(C)(C)C)C(=O)O [Example 26, (2S)-2-(tert-Butoxy)-2-[4-(4,4-dimethylpiperidin-1-yl)-2-methyl-5-{2-[4-(morpholin-4-yl)pyrimidin-2-yl]-1,2,3,4-tetrahydroisoquinolin-6-yl}pyridin-3-yl]acetic Acid] | 0.8 nM |
| Cc1nc(CO)c(-c2ccc3c(c2)CCN(c2nccc(-c4cnccn4)n2)C3)c(N2CCC(C)(C)CC2)c1[C@H](OC(C)(C)C)C(=O)O [Example 165, (S)-2-(tert-Butoxy)-2-(4-(4,4-dimethylpiperidin-1-yl)-6-(hydroxymethyl)-2-methyl-5-(2-(4-(pyrazin-2-yl)pyrimidin-2-yl)-1,2,3,4-tetrahydroisoquinolin-6-yl)pyridin-3-yl)acetic Acid] | 2 nM |
| Cc1cccc(Cl)c1CN1CCc2cc(-c3c(NCCN(C)C)nc(C)c([C@H](OC(C)(C)C)C(=O)O)c3N3CCC(C)(C)CC3)ccc2C1 [Example 3, (S)-2-(tert-Butoxy)-2-(5-(2-(2-chloro-6-methylbenzyl)-1,2,3,4-tetrahydroisoquinolin-6-yl)-6-((2-(dimethylamino)ethyl)amino)-4-(4,4-dimethylpiperidin-1-yl)-2-methylpyridin-3-yl)acetic Acid] | 5 nM |
| CC1(C)CCN(c2c(-c3ccc4c(c3)CCN(c3ncnc5c3oc3ccccc35)C4)c(CO)nc(Cl)c2[C@H](OC(C)(C)C)C(=O)O)CC1 [Example 95, (S)-2-(5-(2-(Benzofuro[3,2-d]pyrimidin-4-yl)-1,2,3,4-tetrahydroisoquinolin-6-yl)-2-chloro-4-(4,4-dimethylpiperidin-1-yl)-6-(hydroxymethyl)pyridin-3-yl)-2-(tert-butoxy)acetic acid] | 1 nM |
| Cc1nc(C)c([C@H](OC(C)(C)C)C(=O)O)c(N2CCC(C)(C)CC2)c1-c1ccc2c(c1)CCN(c1nccc(N3CC4CCC(C3)O4)n1)C2 [Example 30, (2S)-2-(tert-Butoxy)-2-[4-(4,4-dimethylpiperidin-1-yl)-2,6-dimethyl-5-[2-(4-{8-oxa-3-azabicyclo[3.2.1]octan-3-yl}pyrimidin-2-yl)-1,2,3,4-tetrahydroisoquinolin-6-yl]pyridin-3-yl]acetic Acid] | 1 nM |
| COCCNc1nc(C)c([C@H](OC(C)(C)C)C(=O)O)c(N2CCC(C)(C)CC2)c1-c1ccc2c(c1)CCN(Cc1c(C)cccc1Cl)C2 [Example 2, (S)-2-(tert-Butoxy)-2-(5-(2-(2-chloro-6-methylbenzyl)-1,2,3,4-tetrahydroisoquinolin-6-yl)-4-(4,4-dimethylpiperidin-1-yl)-6-((2-methoxyethyl)amino)-2-methylpyridin-3-yl)acetic Acid] | 4 nM |
| Cc1nc(C)c([C@H](OC(C)(C)C)C(=O)O)c(N2CCC(C)(C)CC2)c1-c1ccc2c(c1)CCN(c1ccc(C(F)(F)F)cn1)C2 [Example 143, (S)-2-(tert-butoxy)-2-(4-(4,4-dimethylpiperidin-1-yl)-2,6-dimethyl-5-(2-(5-(trifluoromethyl)pyridin-2-yl)-1,2,3,4-tetrahydroisoquinolin-6-yl)pyridin-3-yl)acetic Acid] | 14 nM |
| Cc1nc(C)c([C@H](OC(C)(C)C)C(=O)O)c(N2CCC(C)(C)CC2)c1-c1ccc2c(c1)CCN(c1nccc(-c3cnccn3)n1)C2 [Example 108, (S)-2-(tert-Butoxy)-2-(4-(4,4-dimethylpiperidin-1-yl)-2,6-dimethyl-5-(2-(4-(pyrazin-2-yl)pyrimidin-2-yl)-1,2,3,4-tetrahydroisoquinolin-6-yl)pyridin-3-yl)acetic Acid] | 2 nM |
| Cc1cn(-c2cc(N3CCc4cc(-c5c(C)nc(C)c([C@H](OC(C)(C)C)C(=O)O)c5N5CCC(C)(C)CC5)ccc4C3)ncn2)cn1 [Example 132, (S)-2-(tert-Butoxy)-2-(4-(4,4-dimethylpiperidin-1-yl)-2,6-dimethyl-5-(2-(6-(4-methyl-1H-imidazol-1-yl)pyrimidin-4-yl)-1,2,3,4-tetrahydroisoquinolin-6-yl)pyridin-3-yl)acetic Acid] | 2 nM |
| Cc1cc(F)ccc1CN1CCc2cc(-c3cnc(C)c([C@H](OC(C)(C)C)C(=O)O)c3N3CCC(C)(C)CC3)ccc2C1 [Example 51, (2S)-2-(tert-Butoxy)-2-[4-(4,4-dimethylpiperidin-1-yl)-5-{2-[(4-fluoro-2-methylphenyl)methyl]-1,2,3,4-tetrahydroisoquinolin-6-yl}-2-methylpyridin-3-yl]acetic Acid] | 4 nM |
| Cc1cccc(Cl)c1CN1CCc2cc(-c3c(CNCCCCCCc4ccccc4)nc(C)c([C@H](OC(C)(C)C)C(=O)O)c3N3CCC(C)(C)CC3)ccc2C1 [Example 157, (S)-2-(tert-Butoxy)-2-(5-(2-(2-chloro-6-methylbenzyl)-1,2,3,4-tetrahydroisoquinolin-6-yl)-4-(4,4-dimethylpiperidin-1-yl)-2-methyl-6-(((6-phenylhexyl)amino)methyl)pyridin-3-yl)acetic Acid] | 340 nM |
| Cc1nc(C)c([C@H](OC(C)(C)C)C(=O)O)c(N2CCC(C)(C)CC2)c1-c1ccc2c(c1)CCN(c1cc(-c3cccc(Cl)c3)ncn1)C2 [Example 82, (S)-2-(tert-Butoxy)-2-(5-(2-(6-(3-chlorophenyl)pyrimidin-4-yl)-1,2,3,4-tetrahydroisoquinolin-6-yl)-4-(4,4-dimethylpiperidin-1-yl)-2,6-dimethylpyridin-3-yl)acetic Acid] | 15 nM |
| CC1(C)CCN(c2c(-c3ccc4c(c3)CCN(c3ncnc5c3oc3ncccc35)C4)c(CO)nc(Cl)c2[C@H](OC(C)(C)C)C(=O)O)CC1 [Example 115, (S)-2-(tert-Butoxy)-2-(2-chloro-4-(4,4-dimethylpiperidin-1-yl)-6-(hydroxymethyl)-5-(2-(pyrido[3′,2′:4,5]furo[3,2-d]pyrimidin-4-yl)-1,2,3,4-tetrahydroisoquinolin-6-yl)pyridin-3-yl)acetic Acid] | 1 nM |
| Cc1nc(C)c([C@H](OC(C)(C)C)C(=O)O)c(N2CCC(C)(C)CC2)c1-c1ccc2c(c1)CCN(c1nccc(N3C[C@@H](C)O[C@@H](C)C3)n1)C2 [Example 28, (2S)-2-(tert-Butoxy)-2-[5-(2-{4-[(2R,6S)-2,6-dimethylmorpholin-4-yl]pyrimidin-2-yl}-1,2,3,4-tetrahydroisoquinolin-6-yl)-4-(4,4-dimethylpiperidin-1-yl)-2,6-dimethylpyridin-3-yl]acetic Acid] | 2 nM |
